Results taken from US9439438B2 (priority 2011, dated 2016).

Tested on: mice
Conditions: mouse, in vivo

[Cl][Mn][Cl] [Mn, MnCl2]
resistance to a lethal STx challenge: completely resistant
